In patent US7981928B2, “Chemotherapy method using x-rays” (Nanodynamics, Inc., priority 2002, dated 2011):

Experiments:
[1] = test system: cells; conditions: cited from earlier work
[2] = test system: mice; conditions: cited from earlier work
[3] = test system: neuroblastoma lines; test: nuclear chemotherapy with 77BrdC on neuroblastoma lines; type: cell-based; conditions: ten neuroblastoma lines tested; H4U blockage
Experimental: An investigation of a method called “nuclear chemotherapy” was done many years previously at Sloan-Kettering Research Institute in New York, by Dr. Chia-Gee Wang and Dr. Lawrence Helson. The research was done using ^77BrdC, where ^77Br (half-life at 57 hours) would undergo a K-capture and deliver 10^6 or more Gy at a small distance. The […] of BrdC to BrdU can be blocked by the non-toxic H4U and therefore excluding BrdC from being incorporated into the DNA pool. Certain transformed cells, on the other hand, would make use of a more primitive kinase to bypass the H4U blockage, and incorporate BrdC to form BrdU. The ^77Br was made by adding an α particle to ^75As in a facility in the U.K. ^77Br was obtained in liquid solution, and ^77BrdC was made. […] The cells simply stopped mitosis while continuing most of the cellular functions. The Auger electrons from the ^77BrdU delivered such a high dose of the DNA duplex that no cellular repair was possible.

## 7-DTPA-Paclitaxel
[1]
  retention of paclitaxel potency in the cells: retain much of the paclitaxel potency

## O=C([O-])CN(CCN(CC(=O)[O-])CC(=O)O)CCN(CC(=O)[O-])CC(=O)O.[Gd+3] [Gd-DTPA]
[2]
  LD50 in mice: ~10 mmol/kg

## Nc1nc(=O)n([C@H]2C[C@H](O)[C@@H](CO)O2)cc1[77Br] [^77BrdC]
[3]
  sensitivity of neuroblastoma lines: two of the ten lines were sensitive
